According to patent publication US9717243B2, “Piperidinecarboxylic acid derivatives as fungicides” (priority 2013, dated 2017):

Experiment: LogP by HPLC on reversed phase columns (EEC directive 79/831 Annex V.A8)
Format: physicochemical
Conditions: not given
Description: Calibration was done with straight-chain alkan2-ones (with 3 to 16 carbon atoms) with known LogP values (measurement of LogP values using retention times with linear interpolation between successive alkanones). Lambda-max-values were determined using UV-spectra from 200 nm to 400 nm and the peak values of the chromatographic signals.

Row | Compound | Log P[a]
1 | COC(=O)C1(c2nc(C3=NOC(c4c(Cl)cccc4OS(C)(=O)=O)C3)cs2)CCN(C(=O)Cn2nc(C(F)F)cc2C)CC1 (centres unmarked) [Example I-60] | 3.19
2 | CCOC(=O)C1(C(N)=S)CCN(C(=O)Cn2nc(C(F)F)cc2C(F)F)CC1 [II-10] | 2.26
3 | C=CCOC(=O)C1(c2nc(C3=NOC(c4c(F)cccc4F)C3)cs2)CCN(C(=O)Cn2nc(C(F)F)cc2C(F)F)CC1 (centres unmarked) [Example I-43] | 3.83
4 | C#CCOc1ccccc1C1CC(c2csc(C3(C(=O)OC)CCN(C(=O)Cn4nc(C(F)F)cc4C(F)F)CC3)n2)=NO1 (centres unmarked) [Example I-4] | 3.61
5 | COC(=O)C1(c2nc(C3=NOC(c4ccccc4OS(C)(=O)=O)C3)cs2)CCN(C(=O)Nc2cc(C(F)F)nn2C)CC1 (centres unmarked) [Example I-8] | 2.64
6 | C=CCOC(=O)C1(c2nc(C3=NOC(c4ccccc4)C3)cs2)CCN(C(=O)Cn2nc(C(F)F)cc2C(F)F)CC1 (centres unmarked) [Example I-44] | 3.85
7 | C#CCOc1ccc(F)c(F)c1C1CC(c2csc(C3(C(=O)OC)CCN(C(=O)Nc4cc(C(F)(F)F)nn4C)CC3)n2)=NO1 (centres unmarked) [Example I-81] | 3.35
8 | COC(=O)C1(C(N)=S)CCN(C(=O)Cn2nc(C(F)F)cc2C)CC1 [II-7] | 1.68
9 | COC(=O)C1(c2nc(C3=NOC(c4c(F)cccc4F)C3)cs2)CCN(C(=O)Cn2nc(C)cc2C(F)F)CC1 (centres unmarked) [Example I-75] | 3.11
10 | C=CCOC(=O)C1(c2nc(C3=NOC(c4c(Cl)cccc4OS(C)(=O)=O)C3)cs2)CCN(C(=O)Cn2nc(C(F)F)cc2C(F)F)CC1 (centres unmarked) [Example I-41] | 3.80
11 | O=C(Cn1nc(C(F)F)cc1C(F)F)N1CCC(C(=O)OC2CCOC2)(c2nc(C3=NOC(c4ccccc4)C3)cs2)CC1 (centres unmarked) [Example I-56] | 3.39
12 | COC(=O)C1(C(N)=S)CCN(C(=O)Cn2nc(C(F)(F)F)cc2C)CC1 [II-6] | 2.08
13 | C#CCOC(=O)C1(c2nc(C3=NOC(c4c(Cl)cccc4OS(C)(=O)=O)C3)cs2)CCN(C(=O)Cn2nc(C(F)F)cc2C(F)F)CC1 (centres unmarked) [Example I-78] | 3.58
14 | CS(=O)(=O)Oc1cccc(Cl)c1C1CC(c2csc(C3(C(=O)OC4CCOC4)CCN(C(=O)Cn4nc(C(F)F)cc4C(F)F)CC3)n2)=NO1 (centres unmarked) [Example I-53] | 3.39
15 | C#CCOc1ccccc1C1CC(c2csc(C3(C(=O)OCc4ccccc4)CCN(C(=O)Cn4nc(C(F)F)cc4C(F)F)CC3)n2)=NO1 (centres unmarked) [Example I-39] | 4.34
16 | C#CCOc1ccc(F)c(F)c1C1CC(c2csc(C3(C(=O)OC4CCOC4)CCN(C(=O)Cn4nc(C(F)F)cc4C(F)F)CC3)n2)=NO1 (centres unmarked) [Example I-59] | 3.55
17 | COC(=O)C1(c2nc(C3=NOC(c4c(Cl)cccc4OS(C)(=O)=O)C3)cs2)CCN(C(=O)Cn2nc(C(F)(F)F)cc2C)CC1 (centres unmarked) [Example I-67] | 3.55

Row | Compound | Log P[a]
18 | COC(=O)C1(c2nc(C3=NOC(c4ccccc4)C3)cs2)CCN(C(=O)Cn2nc(C(F)(F)F)cc2C)CC1 (centres unmarked) [Example I-70] | 3.55
19 | NC(=S)C1(C(=O)OC2CCOC2)CCN(C(=O)Cn2nc(C(F)F)cc2C(F)F)CC1 (centres unmarked) [II-1] | 2.02
20 | CCOC(=O)C1(c2nc(C3=NOC(c4ccccc4)C3)cs2)CCN(C(=O)Cn2nc(C(F)F)cc2C(F)F)CC1 (centres unmarked) [Example I-25] | 3.76
21 | C#CCOc1ccc(F)c(F)c1C1CC(c2csc(C3(C(=O)OC(C)C)CCN(C(=O)Cn4nc(C(F)F)cc4C(F)F)CC3)n2)=NO1 (centres unmarked) [Example I-34] | 4.09
22 | COC(=O)C1(C(N)=S)CCN(C(=O)Cn2nc(C)cc2C(F)F)CC1 [II-5] | 1.75
23 | COC(=O)C1(C(N)=S)CCN(C(=O)Nc2cc(C)ccc2C)CC1 [II-15] | 2.02
24 | C#CCOc1ccccc1C1CC(c2csc(C3(C(=O)OC)CCN(C(=O)Cn4nc(C(F)F)cc4C)CC3)n2)=NO1 (centres unmarked) [Example I-65] | 3.33
25 | CSCCOC(=O)C1(c2nc(C3=NOC(c4c(F)cccc4F)C3)cs2)CCN(C(=O)Cn2nc(C(F)F)cc2C(F)F)CC1 (centres unmarked) [Example I-49] | 3.87
26 | C#CCOc1ccc(F)c(F)c1C1CC(c2csc(C3(C(=O)OC)CCN(C(=O)Nc4cn(C(F)F)nc4C)CC3)n2)=NO1 (centres unmarked) [Example I-18] | 3.04
27 | NC(=S)C1(C(=O)OCc2ccccc2)CCN(C(=O)Cn2nc(C(F)F)cc2C(F)F)CC1 [II-4] | 2.90
28 | COCCOC(=O)C1(C(N)=S)CCN(C(=O)Cn2nc(C(F)F)cc2C(F)F)CC1 [II-18] | 2.10
29 | COC(=O)C1(c2nc(C3=NOC(c4ccccc4)C3)cs2)CCN(C(=O)Cn2nc(C(F)F)cc2C)CC1 (centres unmarked) [Example I-63] | 3.17
30 | C=CCOC(=O)C1(C(N)=S)CCN(C(=O)Cn2nc(C(F)F)cc2C(F)F)CC1 [II-3] | 2.42
31 | C#CCOc1ccccc1C1CC(c2csc(C3(C(=O)OC)CCN(C(=O)Nc4cc(C(F)F)nn4C)CC3)n2)=NO1 (centres unmarked) [Example I-15] | 3.00
32 | C#CCOc1ccccc1C1CC(c2csc(C3(C(=O)OCCSC)CCN(C(=O)Cn4nc(C(F)F)cc4C(F)F)CC3)n2)=NO1 (centres unmarked) [Example I-51] | 4.01
33 | CSCCOC(=O)C1(c2nc(C3=NOC(c4ccccc4)C3)cs2)CCN(C(=O)Cn2nc(C(F)F)cc2C(F)F)CC1 (centres unmarked) [Example I-50] | 3.89
34 | COC(=O)C1(C(N)=S)CCN(C(=O)Nc2cc(C(F)F)ccc2C(F)F)CC1 [II-13] | 2.23

The next lines start with the values.

Row | Log P[a] | Compound
35 | 2.71 | C=CCOC(=O)C1(C#N)CCN(C(=O)Cn2nc(C(F)F)cc2C(F)F)CC1 [IV-5]
36 | 2.26 | CC(C)=CCNC(=O)C1(C#N)CCN(C(=O)Nc2ccccc2)CC1 [IV-42]
37 | 2.42 | N#CC1(C(=O)O)CCN(C(=O)Nc2ccc(Cl)c(C(F)(F)F)c2)CC1 [IV-30]
38 | 1.51 | COC(=O)C1(C#N)CCN(C(=O)Nc2cn(C(F)F)nc2C)CC1 [IV-18]
39 | 3.50 | CC(C)(C)OC(=O)C1(C#N)CCN(C(=S)Nc2ccccc2C(F)(F)F)CC1 [IV-25]
40 | 2.55 | CCOC(=O)C1(C#N)CCN(C(=O)Cn2nc(C(F)F)cc2C(F)F)CC1 [IV-11]
41 | 2.52 | C#CCOC(=O)C1(C#N)CCN(C(=O)Cn2nc(C(F)F)cc2C(F)F)CC1 [IV-4]
42 | 1.50 | Cc1cc(C(F)(F)F)nn1CC(=O)N1CCC(C#N)(C(=O)O)CC1 [IV-14]
43 | 3.72 | CC(C)(C)OC(=O)C1(C#N)CCN(C(=S)Nc2cccc(Cl)c2)CC1 [IV-26]
44 | 2.47 | COC(=O)C1(C#N)CCN(C(=O)Nc2cc(C(F)F)ccc2C(F)F)CC1 [IV-16]
45 | 2.33 | N#CC1(C(=O)O)CCN(C(=S)Nc2ccc(OC(F)(F)F)cc2)CC1 [IV-33]
46 | 2.08 | CCC(C)NC(=O)C1(C#N)CCN(C(=O)Cc2ccccc2)CC1 (centres unmarked) [IV-38]
47 | 2.69 | CCC(C)NC(=O)C1(C#N)CCN(C(=S)Nc2cccc(Cl)c2)CC1 (centres unmarked) [IV-35]
48 | 3.15 | CCC(C)NC(=O)C1(C#N)CCN(C(=O)Nc2ccc(Cl)c(C(F)(F)F)c2)CC1 (centres unmarked) [IV-39]
49 | 2.84 | CC(C)OC(=O)C1(C#N)CCN(C(=O)Cn2nc(C(F)F)cc2C(F)F)CC1 [IV-10]
50 | 2.96 | CC(C)(C)OC(=O)C1(C#N)CCN(C(=O)Cc2ccccc2)CC1 [IV-23]
51 | 2.01 | N#CC1(C(=O)O)CCN(C(=S)Nc2cccc(Cl)c2)CC1 [IV-32]
52 | 2.71 | CC(C)=CCN(C)C(=O)C1(C#N)CCN(C(=O)Nc2ccc(F)cc2)CC1 [IV-40]
53 | 2.88 | CC(C)(C)OC(=O)C1(C#N)CCN(C(=O)Nc2cccc(C#N)c2)CC1 [IV-29]
54 | 2.13 | CCC(C)NC(=O)C1(C#N)CCN(C(=O)Nc2ccccc2)CC1 (centres unmarked) [IV-45]

Same assay, conditions: Table 1, compounds of formula (I); LC-UV, acidic range, 0.1% formic acid in water and acetonitrile as eluent

Row | Compound | Log P[a]
55 | COC(=O)C1(c2nc(C3=NOC(c4c(Cl)cccc4OS(C)(=O)=O)C3)cs2)CCN(C(=O)Cn2nc(C(F)F)cc2C(F)F)CC1 (centres unmarked) [Example I-6] | 3.44
56 | COC(=O)C1(c2nc(C3=NOC(c4ccccc4-c4ccccc4)C3)cs2)CCN(C(=O)Cn2nc(C(F)F)cc2C(F)F)CC1 (centres unmarked) [Example I-2] | 4.36
57 | O=C(Cn1nc(C(F)F)cc1C(F)F)N1CCC(C(=O)OCc2ccccc2)(c2nc(C3=NOC(c4ccccc4-c4ccccc4)C3)cs2)CC1 (centres unmarked) [Example I-36] | 5.08
58 | C=CCOC(=O)C1(c2nc(C3=NOC(c4ccccc4-c4ccccc4)C3)cs2)CCN(C(=O)Cn2nc(C(F)F)cc2C(F)F)CC1 (centres unmarked) [Example I-42] | 4.72
59 | COC(=O)C1(c2nc(C3=NOC(c4ccccc4-c4ccccc4)C3)cs2)CCN(C(=O)Cn2nc(C(F)F)cc2C)CC1 (centres unmarked) [Example I-61] | 4.09
60 | CCOC(=O)C1(c2nc(C3=NOC(c4ccccc4-c4ccccc4)C3)cs2)CCN(C(=O)Cn2nc(C(F)F)cc2C(F)F)CC1 (centres unmarked) [Example I-23] | 4.64

Same assay, conditions: Table 2, compounds of formula (IV); LC-UV, acidic range, 0.1% formic acid in water and acetonitrile as eluent; read-out: Log P[a]

Row | Compound | chromatographic logP
61 | COC(=O)C1(C#N)CCN(C(=O)Nc2cc(C(F)F)nn2C)CC1 [IV-17, methyl 4-cyano-1-{[3-(difluoromethyl)-1-methyl-1H-pyrazol-5-yl]carbamoyl}piperidine-4-carboxylate] | 1.53
62 | COC(=O)C1(C#N)CCN(C(=O)Cn2nc(C(F)F)cc2C(F)F)CC1 [IV-13, methyl 1-{[3,5-bis(difluoromethyl)-1H-pyrazol-1-yl]acetyl}-4-cyanopiperidine-4-carboxylate] | 2.26

Same assay, conditions: Table 4, compounds of formula (II); LC-UV, acidic range, 0.1% formic acid in water and acetonitrile as eluent; read-out: Log P[a]

Row | Compound | chromatographic logP
63 | COC(=O)C1(C(N)=S)CCN(C(=O)Cn2nc(C(F)F)cc2C(F)F)CC1 [II-11, methyl 1-{[3,5-bis(difluoromethyl)-1H-pyrazol-1-yl]acetyl}-4-carbamothioylpiperidine-4-carboxylate] | 1.98
64 | COC(=O)C1(C(N)=S)CCN(C(=O)Nc2cc(C(F)F)nn2C)CC1 [II-12, methyl 4-carbamothioyl-1-{[3-(difluoromethyl)-1-methyl-1H-pyrazol-5-yl]carbamoyl}piperidine-4-carboxylate] | 1.33

Same assay, conditions: pH 2.7; synthesis intermediates in preparation examples; read-out: LogP (pH 2.7)

Row | Compound | chromatographic logP
65 | CS(=O)(=O)Oc1ccccc1C1CC(C(=O)CCl)=NO1 (centres unmarked) [2-[3-(chloroacetyl)-4,5-dihydro-1,2-oxazol-5-yl]phenyl methanesulfonate] | 2.54
